Our source for the IC50 and Ki values is ChEMBL document CHEMBL1158345, “Fragment and knowledge-based design of selective GSK-3beta inhibitors using virtual screening models” (Eur J Med Chem, 2009).

By pIC50 is commonly meant −log10 of the IC50, conventionally taken in molar units. A higher pIC50 goes with a small IC50. A word on the pKi: it is the negative decadic logarithm of the Ki, by convention in mol/L.

This test concerns the target Glycogen synthase kinase-3 beta (Homo sapiens, UniProt P49841).

pIC50, pKi: −log10 of the molar value.

Chain of Glycogen synthase kinase-3 beta (P49841 whole entry): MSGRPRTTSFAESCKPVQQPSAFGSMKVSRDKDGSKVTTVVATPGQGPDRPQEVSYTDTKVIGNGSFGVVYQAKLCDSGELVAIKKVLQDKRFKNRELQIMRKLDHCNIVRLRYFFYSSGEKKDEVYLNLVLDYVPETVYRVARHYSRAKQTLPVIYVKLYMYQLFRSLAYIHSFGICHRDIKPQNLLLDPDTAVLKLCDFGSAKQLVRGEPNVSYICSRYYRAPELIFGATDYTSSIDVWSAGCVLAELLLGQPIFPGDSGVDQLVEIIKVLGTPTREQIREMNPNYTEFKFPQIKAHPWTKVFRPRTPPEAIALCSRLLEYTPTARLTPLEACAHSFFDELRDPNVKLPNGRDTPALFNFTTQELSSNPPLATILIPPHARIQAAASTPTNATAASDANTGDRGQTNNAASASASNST
Description: Inhibition of human GSK3-beta

Turning to `COc1cc(C2=C(c3cn(CCN4CCN(C)CC4)c4ccccc34)C(=O)NC2=O)c2occc2c1`, the pIC50 was 9.85. For `Cn1cc(C2=C(c3cn(CCCSC(=N)N)c4ccccc34)C(=O)NC2=O)c2ccccc21` [BISINDOLYLMALEIMIDE IX], the negative logarithm of the IC50 (pIC50) was 8.55. In turn, `O=[N+]([O-])c1ccc(NCCNc2ncc(-c3ncc[nH]3)c(-c3ccc(Cl)cc3Cl)n2)nc1` showed a pKi of 10.05. For `Nc1nc(Nc2ccccc2)sc1C(=O)C1CC1`, the pIC50 was 5.62. Molecule `Cn1cc(C2=C(c3cc(Cl)ccc3Cl)C(=O)NC2=O)c2ccccc21` gave a pIC50 of 8.15. The same measure, in the same setting: the same measure for `Cn1cc(-c2cc(-c3nc4ccccc4[nH]3)c(=O)[nH]n2)ccc1=O`: 6.80.
